What was measured:
TopBP1 oligomerization [1] = biological target: T1, TopBP1 oligomerization (Homo sapiens, UniProt Q92547); experiment: TopBP1 oligomerization in MDA-MB468 cells (co-IP of tagged TopBP1, DMP cross-linking); type: cell-based; settings: 2.5 μM, 5 h
T1 construct: endogenous in cells; host or cells: MDA-MB468
Experimental: (§1) MDA-MB468 cells were lysed with TNN buffer (Liu et al. 2003). An aliquot of cell lysates was lysed with SDS lysis buffer and the rest of cell lysates were incubated with appropriate antibodies or beads at 4° C. for 3-12 h. Anti-FLAG beads (Sigma) were washed three times with TNN buffer. Immunoprecipitates were fractionated by SDS-PAGE and electro-transferred to Immobilon-P membrane (Millipore). Equal amount of protein loading was validated with Ponceau-S staining. The specific signals were detected by incubating with appropriate antibody. All primary antibodies were used at 1:1000 dilution and horseradish peroxidase (HRP)-conjugated secondary antibodies were used at 1:5000 dilution for immunoblotting. E2F1 (C-20 and KH-95), p53 (FL393), p63 (4A4 and H-129), p73 (H-79), p21 (C-19), Bax (N-20), GST (B-14), c-Myc (A14), Miz1 (H-190), Chk1 (G4), Actin (C-2) and GAPDH (6C5) antibodies were purchased from Santa Cruz. TopBP1 (mouse monoclonal) and Aid antibodies were purchased from BD Transduction Laboratories. TopBP1 (BL893, Rabbit polyclonal) antibody was purchased from Bethyl. Mouse monoclonal anti-phospho-γH2AX was purchased from Millipore. Phospho-Chk1 (Ser345) antibody was purchased from Cell signaling. FLAG (F7425) antibody was purchased from Sigma. Mouse monoclonal anti-p73 (IMG-246) was purchased from IMGENEX. […]

TopBP1 oligomerization [2] = experiment: as above; type: cell-based, human; settings: 2.5 μM, 5 h
Experimental: as §1

TopBP1/E2F1 interaction = biological target: T2, TopBP1/E2F1 interaction (Homo sapiens, UniProt Q92547); experiment: Co-immunoprecipitation in MDA-MB468 cells, TopBP1/E2F1; type: cell-based; settings: 2.5 μM, 5 h
T2 construct: endogenous in cells; host or cells: MDA-MB468
Experimental: (§2) MDA-MB468 cells were lysed with TNN buffer (Liu et al. 2003). An aliquot of cell lysates was lysed with SDS lysis buffer and the rest of cell lysates were incubated with appropriate antibodies or beads at 4° C. for 3-12 h. Anti-FLAG beads (Sigma) were washed three times with TNN buffer. Immunoprecipitates were fractionated by SDS-PAGE and electro-transferred to Immobilon-P membrane (Millipore). Equal amount of protein loading was validated with Ponceau-S staining. The specific signals were detected by incubating with appropriate antibody. All primary antibodies were used at 1:1000 dilution and horseradish peroxidase (HRP)-conjugated secondary antibodies were used at 1:5000 dilution for immunoblotting. E2F1 (C-20 and KH-95), p53 (FL393), p63 (4A4 and H-129), p73 (H-79), p21 (C-19), Bax (N-20), GST (B-14), c-Myc (A14), Miz1 (H-190), Chk1 (G4), Actin (C-2) and GAPDH (6C5) antibodies were purchased from Santa Cruz. TopBP1 (mouse monoclonal) and Aid antibodies were purchased from BD Transduction Laboratories. TopBP1 (BL893, Rabbit polyclonal) antibody was purchased from Bethyl. Mouse monoclonal anti-phospho-γH2AX was purchased from Millipore. Phospho-Chk1 (Ser345) antibody was purchased from Cell signaling. FLAG (F7425) antibody was purchased from Sigma. Mouse monoclonal anti-p73 (IMG-246) was purchased from IMGENEX.

[3] = biological target: T3, TopBP1/mutp53(R273H) interaction (Homo sapiens, UniProt Q92547); experiment: Co-immunoprecipitation in MDA-MB468 cells, TopBP1/mutp53; type: cell-based; settings: 2.5 μM, 5 h
T3 construct: endogenous in cells; host or cells: MDA-MB468
Experimental: as §2

TopBP1/Miz1 interaction = biological target: T4, TopBP1/Miz1 interaction (Homo sapiens, UniProt Q92547); experiment: Co-immunoprecipitation in BT549 cells, TopBP1/Miz1; type: cell-based; settings: 2.5 μM, 3 h
T4 construct: expressed in transfected cells; host or cells: BT549

[4] = system: E2F1 transcriptional activity; experiment: E2F1 activity reporter assay (p14Arf promoter dual luciferase) in HEK293 cells; type: cell-based, human
Experimental: (§3) E2F1 activity reporter assay using a p14^ARF promoter-luciferase plasmid was performed as described (Liu et al. 2003). p53 activity reporter assay was performed by a p21^Cip promoter-luciferase plasmid (Liu et al. 2009). p73 activity reporter assay was performed using a pGL3-Bax promoter-luciferase plasmid (Liu et al. 2011). pRL-TK (Renilla luciferase, Promega) was used in all experiments for controlling transfection efficiency. The firefly and Renilla luciferase activities were measured by Dual-Luciferase Reporter System (Promega), and the firefly luciferase activities were normalized against the Renilla activity. All assays were performed in triplicate.

[5] = system: p53 transcriptional activity; experiment: p53 activity reporter assay (p21 promoter dual luciferase) in H1299 cells; type: cell-based, human
Experimental: as §3

[6] = system: mutp53(R273H) gain of function; experiment: p73 activity reporter (Bax promoter-luciferase) assay in p53-null H1299 cells expressing p73α and mutp53(R273H); type: cell-based, human
Experimental: as §3

MCF7 cells = experiment: Caspase 3/7 activity assay, MCF7; type: cell-based, human; settings: 2.5 μM overnight
Experimental: (§4) The apoptosis was measured by Caspase-Glo® 3/7 assay (Promega) following the manufacturer's protocol. The cells were plated in 6-well tissue culture dish (10^4 cells/well) (BD Falcon) in respective media. […] The blank reactions were prepared per direction. Equal volume of Caspase-Glo® 3/7 reagents were applied to each well. A luminometer (Sirius) was used to quantitate luminescence.

MDA-MB468 cells = experiment: Caspase 3/7 activity assay, MDA-MB468; type: cell-based, human
Experimental: as §4
(§5) To prepare TopBP1 knockdown stable cell line, MDA-MB468 cells were infected with lentivirus expressing TopBP1 shRNA (Liu et al. 2011) as well as scramble shRNA, separately. The infected cells were grown for 48 h followed by selection with puromycin (2 μg/ml). After selection, the knockdown was confirmed by Western blotting before further experiments. Two different pLKO-shTopBP1 (#1 and #2) constructs (Open Biosystems, RHS4533-NM_007027) were used to deplete TopBP1 in MDA-MB468 cells. Additional two pSuper-shTopBP1 constructs (Liu et al. 2004) were used to knock down TopBP1 in HEK293 cells. Two pSuper-shE2F1 constructs were used to deplete E2F1: shE2F1#1 (described previously (Liu et al. 2004)), and shE2F1#2 (target sequence 5′-[…]-3′). The target sequence for pSuperior-shE2F1 is the same as pSuper-shE2F1#1. To deplete p63, shp63alpha pLKO.1-puro (from Addgene, 19120) was used. TP73 MISSION shRNA (shp73 pLKO.1-puro) was purchased from Sigma (TRCN00002722587).

BT549 cells = experiment: Caspase-Glo 3/7 activity assay, BT549; type: cell-based, human; settings: for Calcein AM-induced apoptosis: 17 h
Experimental: as §4, §5

[7] = system: McA-RH7777 rat hepatoma cells; experiment: Apoptosis in rat tumor cells; type: cell-based
Experimental: as §4

Jurkat-T cells = experiment: Caspase 3/7 activation assay, Jurkat-T; type: cell-based; settings: 2.5 μM, 7 hours
Experimental: as §4

[8] = system: NCI-H520 lung cancer cells; experiment: Caspase 3/7 activation assay, NCI-H520; type: cell-based; settings: 2.5 or 5 μM, 16 hours
Experimental: as §4

NCI-H522 = settings: NCI-DTP database; cited from earlier work
[9] = system: T47D (PIK3CA mutant H1047R); settings: NCI-60 cell lines database; cited from earlier work

T3 sequence (Q92547 whole entry, stated change not applied): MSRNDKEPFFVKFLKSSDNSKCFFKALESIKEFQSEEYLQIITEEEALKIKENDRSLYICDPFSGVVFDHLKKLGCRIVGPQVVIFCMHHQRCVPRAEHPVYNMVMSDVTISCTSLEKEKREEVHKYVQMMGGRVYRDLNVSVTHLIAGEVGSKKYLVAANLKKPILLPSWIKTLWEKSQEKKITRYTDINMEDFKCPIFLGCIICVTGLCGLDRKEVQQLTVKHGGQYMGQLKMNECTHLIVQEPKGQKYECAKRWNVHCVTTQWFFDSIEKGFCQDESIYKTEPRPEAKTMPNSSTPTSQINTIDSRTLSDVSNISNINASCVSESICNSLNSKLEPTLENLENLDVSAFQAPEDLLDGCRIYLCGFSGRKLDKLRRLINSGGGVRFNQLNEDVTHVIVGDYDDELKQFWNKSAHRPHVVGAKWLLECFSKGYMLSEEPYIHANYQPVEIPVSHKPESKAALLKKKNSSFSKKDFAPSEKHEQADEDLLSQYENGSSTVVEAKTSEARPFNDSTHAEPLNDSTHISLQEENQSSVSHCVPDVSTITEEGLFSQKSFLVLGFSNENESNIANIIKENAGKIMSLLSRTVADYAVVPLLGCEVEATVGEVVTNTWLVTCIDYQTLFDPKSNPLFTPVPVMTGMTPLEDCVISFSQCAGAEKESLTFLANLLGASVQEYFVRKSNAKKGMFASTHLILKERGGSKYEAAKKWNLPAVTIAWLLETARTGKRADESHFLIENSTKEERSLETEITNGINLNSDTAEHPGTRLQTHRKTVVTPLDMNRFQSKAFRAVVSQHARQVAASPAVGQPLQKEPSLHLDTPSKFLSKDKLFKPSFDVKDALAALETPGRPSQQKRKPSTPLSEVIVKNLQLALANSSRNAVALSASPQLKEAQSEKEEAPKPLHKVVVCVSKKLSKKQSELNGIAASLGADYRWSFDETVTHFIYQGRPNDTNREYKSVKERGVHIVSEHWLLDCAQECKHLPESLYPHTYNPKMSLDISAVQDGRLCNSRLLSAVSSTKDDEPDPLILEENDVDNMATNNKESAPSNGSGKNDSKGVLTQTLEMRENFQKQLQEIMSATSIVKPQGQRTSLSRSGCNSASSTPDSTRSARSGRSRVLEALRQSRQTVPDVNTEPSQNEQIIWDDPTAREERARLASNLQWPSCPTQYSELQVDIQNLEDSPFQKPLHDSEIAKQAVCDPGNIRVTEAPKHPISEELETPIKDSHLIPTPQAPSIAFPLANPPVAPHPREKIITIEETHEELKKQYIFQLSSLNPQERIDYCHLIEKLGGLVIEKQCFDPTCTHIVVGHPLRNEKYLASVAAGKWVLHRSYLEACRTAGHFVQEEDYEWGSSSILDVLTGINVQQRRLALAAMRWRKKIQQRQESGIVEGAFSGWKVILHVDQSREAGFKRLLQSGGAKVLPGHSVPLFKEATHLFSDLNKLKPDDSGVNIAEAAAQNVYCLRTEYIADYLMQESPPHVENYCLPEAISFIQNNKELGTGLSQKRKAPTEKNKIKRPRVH
T1 sequence (Q92547 whole entry): as the sequence (Q92547 whole entry, stated change not applied) above
T4 sequence (Q92547 whole entry): as the sequence (Q92547 whole entry, stated change not applied) above
T2 sequence (Q92547 whole entry): as the sequence (Q92547 whole entry, stated change not applied) above

What does the source list for `CC(=O)OCOC(=O)CN(CC(=O)OCOC(C)=O)Cc1cc2c(cc1OC(C)=O)Oc1cc(OC(C)=O)c(CN(CC(=O)OCOC(C)=O)CC(=O)OCOC(C)=O)cc1C21OC(=O)c2ccccc21` [Calcein AM, Calcein AM (acetoxymethyl ester)]?
endogenous TopBP1 oligomerization, DMP chemical crosslinking assay (TopBP1 oligomerization [1]): blocked endogenous TopBP1 oligomerization; TopBP1 oligomerization, differentially tagged TopBP1 (TopBP1 oligomerization [2]): inhibit TopBP1 oligomerization; TopBP1/E2F1 interaction at physiological levels (TopBP1/E2F1 interaction): inhibited; TopBP1/mutp53 interaction at physiological levels [3]: inhibited; interaction between TopBP1 and Miz1 (TopBP1/Miz1 interaction): inhibited the interaction between TopBP1 and Miz1; E2F1 transcriptional activity [4]: enhanced; p53 transcriptional activity [5]: enhanced; inhibition of p73 transcriptional activity by mutp53(R273H) [6]: blocked; apoptosis (caspase 3/7 activity) (MCF7 cells): induced apoptosis; apoptosis (caspase 3/7 activity) (MDA-MB468 cells; 2.5 μM overnight): induced apoptosis; apoptosis (caspase 3/7 activity) (MDA-MB468 cells; 0.1 and 0.5 μM, 16 h): not; apoptosis (caspase 3/7 activity) (MDA-MB468 cells; 2.5 and 5 μM, 16 h): induced; effect of Calcein AM on apoptosis (caspase 3/7) (MDA-MB468 cells; TopBP1-depleted cells, 2.5 μM overnight): mitigated the effect; concentration at which apoptosis was induced (BT549 cells; 16 h): ≥ 1 µM; Calcein AM response, caspase activation (BT549 cells; E2F1 depleted by two shRNA constructs, 2.5 μM, 16 h): attenuated; Calcein AM-induced apoptosis (BT549 cells; p63 depleted, 2.5 μM): decreased; Calcein AM-induced apoptosis (BT549 cells; p73 depleted, 2.5 μM): decreased; apoptosis [7]: induced apoptosis; cell killing (caspase 3/7 activation) (Jurkat-T cells): active in killing; apoptosis (caspase 3/7 activation) [8]: induced apoptosis; GI50 (NCI-H522): < 1 µM; GI50 [9]: 1.4 µM
